Laboratory results published in patent US20250122174A1 (Shenzhen Yuanli Shenwan Innovative Medicine Co., Ltd., priority 2022, published 2025).

Each molecule was assayed against HPK1 (Homo sapiens (Human), UniProt Q92918) (assay: HPK1 Inhibition Assay (ADP-Glo kinase assay)). Details: ATP 10 μM.
Format: biochemical
Method: A stock solution of 10 mM test compound was prepared in DMSO. The compound was prepared by 5-fold and 10-point serial dilutions with HPK1 kinase assay buffer. The HPK1 kinase assay buffer contained 40 mM Tris, pH 7.5; 20 mM MgCl2, 0.1 mg/ml BSA, and 50 μM DTT. 7.5 ng/μl of Active HPK1 (Promega, V4098) and 0.1 μg/ml MBP substrate protein were added to the reaction system. The final concentration of ATP in the HPK1 kinase reaction system was 10 μM. Serial diluted compounds were transferred to the reaction system and incubated at room temperature for 1 hr. 5 μL of ADP-Glo™ Reagent (Promega, V9101) was added and incubated for 40 min to stop the kinase reaction and deplete the unconsumed ATP. […] The luminescence was measured with a plate-reading luminometer.

Chain of HPK1 (Q92918 1-346 limits assumed): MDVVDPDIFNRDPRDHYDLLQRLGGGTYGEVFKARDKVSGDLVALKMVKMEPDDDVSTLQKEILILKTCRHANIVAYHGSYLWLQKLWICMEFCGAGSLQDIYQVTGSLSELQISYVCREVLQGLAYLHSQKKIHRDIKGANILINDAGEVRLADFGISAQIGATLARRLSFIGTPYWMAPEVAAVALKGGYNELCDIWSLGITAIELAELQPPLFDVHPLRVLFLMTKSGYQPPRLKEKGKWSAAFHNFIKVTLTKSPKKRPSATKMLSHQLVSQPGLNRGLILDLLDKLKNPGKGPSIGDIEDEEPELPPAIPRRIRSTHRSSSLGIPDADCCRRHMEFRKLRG

How did the IC50 turn out when Cn1c(C(C)(C)C)nc2c(N3CC[C@H](N)C3)c(NC(=O)c3ccc(=O)n(-c4c(F)cccc4F)n3)ccc21 [Example 98, N-{4-[(3S)-3-aminopyrrolidin-1-yl]-2-tert-butyl-1-methyl-1,3-benzodiazol-5-yl}-1-(2,6-difluorophenyl)-6-oxopyridazine-3-carboxamide] was run?
The IC50 was under 100 nM.

Which IC50 does the source give for COCCn1ncc2c(N3CCC(N)CC3)c(NC(=O)c3ccc(=O)n(-c4c(F)cccc4F)n3)cc(F)c21 [Example 284, N-(4-(4-aminopiperidin-1-yl)-7-fluoro-1-(2-methoxyethyl)-1H-indazol-5-yl)-1-(2,6-difluorophenyl)-6-oxo-1,6-dihydropyridazine-3-carboxamide] here?
Its IC50 is under 100 nM.

For [2H]C([2H])([2H])C(n1ncc2c(N3C[C@H](N)C4(CC4)C3)c(NC(=O)c3ccc(=O)n(-c4c(F)cccc4F)n3)ccc21)C([2H])([2H])[2H] [Example 277, (R)-N-(4-(7-amino-5-azaspiro[2.4]heptan-5-yl)-1-(propan-2-yl-1,1,1,3,3,3-d6)-1H-indazol-5-yl)-1-(2,6-difluorophenyl)-6-oxo-1,6-dihydropyridazine-3-carboxamide], which IC50 is on record?
The IC50 was under 100 nM.

CC(C)c1nc2c(N3C[C@H](N)C4(COC4)C3)c(NC(=O)c3ccc(=O)n(-c4c(F)cccc4F)n3)ccc2n1C [Example 113, (R)-N-(4-(8-amino-2-oxa-6-azaspiro[3.4]octan-6-yl)-2-isopropyl-1-methyl-1H-benzo[d]imidazol-5-yl)-1-(2,6-difluorophenyl)-6-oxo-1,6-dihydropyridazine-3-carboxamide] was tested. Which IC50 did it give?
Its IC50 is under 100 nM.

For C[C@@H]1CN(c2c(NC(=O)c3ccc(=O)n(-c4c(F)cccc4F)n3)ccc3nn(C4(C)CCC4)cc23)C[C@@H]1N [Example 317, 1-(2,6-difluorophenyl)-N-{4-[(3R,4R)-3-amino-4-methyltetrahydro-1H-pyrrol-1-yl]-2-(methylcyclobutyl)indazol-5-yl}-6-oxo-1,2-diazine-3-carboxamide], which IC50 is on record?
Its IC50 is under 100 nM.

Which IC50 does the source give for CC(C)c1nc2c(N3CC[C@](N)(CO)C3)c(NC(=O)c3ccc(=O)n(-c4c(F)cccc4F)n3)ccc2n1C (single isomer, unassigned) [Example 124] here?
Its IC50 is under 100 nM.

For N[C@H]1CN(c2c(NC(=O)c3ccc(=O)n(-c4c(F)cccc4F)n3)ccc3nn(C4(C(F)(F)F)CC4)cc23)CC12CC2 (single isomer, unassigned) [Example 313], which IC50 is on record?
The IC50 was under 100 nM.

C[C@@H]1CN(c2c(NC(=O)c3ccc(=O)n(-c4c(F)cccc4F)n3)ccc3c2nc(C(C)(C)C)n3C)C[C@@H]1N [Example 104, N-(4-((3R,4R)-3-amino-4-methylpyrrolidin-1-yl)-2-(tert-butyl)-1-methyl-1H-benzo 112 midazolezol-5-yl)-1-(2,6-difluorophenyl)-6-oxo-1,6-dihydropyridazine-3-carboxamide] was tested. Which IC50 did it give?
The IC50 was under 100 nM.

With C[C@@H]1CN(c2c(NC(=O)c3ccc(=O)n(-c4c(F)cccc4F)n3)ccc3c2cnn3[C@@H]2CCCOC2)C[C@@H]1N [Example 252, N-(4-((3R,4R)-3-amino-4-methylpyrrolidin-1-yl)-1-((R)-tetrahydro-2H-pyran-3-yl)-1H-indazol-5-yl)-1-(2,6-difluorophenyl)-6-oxo-1,6-dihydropyridazine-3-carboxamide] as the molecule, how does the IC50 read?
The IC50 was under 100 nM.

For COCCn1c(C)nc2c(N3CC[C@H](N)C3)c(NC(=O)c3ccnc(-c4c(F)cccc4OC)c3F)ccc21 [Example 11, N-(4-((S)-3-aminopyrrolidin-1-yl)-1-(2-methoxyethyl)-2-methyl-1H-benzo[d]imidazol-5-yl)-3-fluoro-2-(2-fluoro-6-methoxyphenyl)isonicotinamide], which IC50 is on record?
Its IC50 is under 100 nM.

For CC(C)n1cc2c(N3C[C@H](N)C(C)(C)C3)c(NC(=O)c3ccc(=O)n(-c4c(F)cccc4F)n3)ccc2n1 [Example 227, (R)-N-(4-(4-amino-3,3-dimethylpyrrolidin-1-yl)-2-isopropyl-2H-indazol-5-yl)-1-(2,6-difluorophenyl)-6-oxo-1,6-dihydropyridazine-3-carboxamide], which IC50 is on record?
Its IC50 is under 100 nM.

For N#Cc1ccncc1-c1ccc(NC(=O)c2ccc(=O)n(-c3c(F)cccc3F)n2)c(N2CCC(NCCO)CC2)c1 [Example 360, N-(4-(4-cyanopyridin-3-yl)-2-(4-((2-hydroxyethyl)amino)piperidin-1-yl)phenyl)-1-(2,6-difluorophenyl)-6-oxo-1,6-dihydropyridazine-3-carboxamide], which IC50 is on record?
The IC50 was under 100 nM.

Which IC50 does the source give for CC(C)n1nc(F)c2c(N3C[C@@H](C)[C@@H](N)C3)c(NC(=O)c3ccc(=O)n(-c4c(F)cccc4F)n3)ccc21 [Example 198, N-(4-((3R,4R)-3-amino-4-methylpyrrolidin-1-yl)-3-fluoro-1-isopropyl-1H-indazol-5-yl)-1-(2,6-difluorophenyl)-6-oxo-1,6-dihydropyridazine-3-carboxamide] here?
The IC50 was under 100 nM.

How did the IC50 turn out when Cn1c(C2CC2)nc2c(N3CC[C@H](N)C3)c(NC(=O)c3ccc(=O)n(-c4c(F)cccc4F)n3)ccc21 [Example 97, N-{4-[(35)-3-aminopyrrolidin-1-yl]-2-cyclopropyl-1-methyl-1,3-benzodiazol-5-yl}-1-(2,6-difluorophenyl)-6-oxopyridazine-3-carboxamide] was run?
The IC50 was under 100 nM.

Which IC50 does the source give for CC(C)n1cc2c(N3CC[C@@H](CN)C3)c(NC(=O)c3ccc(=O)n(-c4c(F)cccc4F)n3)cc(F)c2n1 [Example 221, (S)-N-(4-(3-(aminomethyl)pyrrolidin-1-yl)-7-fluoro-2-isopropyl-2H-indazol-5-yl)-1-(2,6-difluorophenyl)-6-oxo-1,6-dihydropyridazine-3-carboxamide] here?
Its IC50 is under 100 nM.

C[C@H]1CN(c2c(NC(=O)c3ccc(=O)n(-c4c(F)cccc4F)n3)ccc3nn(C4(C)CCC4)cc23)C[C@@H]1N [Example 321, N-(4-((3R,4S)-3-amino-4-methylpyrrolidin-1-yl)-2-(1-methylcyclobutyl)-2H-indazol-5-yl)-1-(2,6-difluorophenyl)-6-oxo-1,6-dihydropyridazine-3-carboxamide] was tested. Which IC50 did it give?
Its IC50 is under 100 nM.

CCn1ncc2c(N3CC[C@@H](N)C3)c(NC(=O)c3ccc(=O)n(-c4c(F)cccc4F)n3)ccc21 [Example 292, (R)-N-(4-(3-aminopyrrolidin-1-yl)-1-ethyl-1H-indazol-5-yl)-1-(2,6-difluorophenyl)-6-oxo-1,6-dihydropyridazine-3-carboxamide] was tested. Which IC50 did it give?
The IC50 was under 100 nM.

How did the IC50 turn out when CCC(C)(C)n1cc2c(N3C[C@@H](C)[C@@H](N)C3)c(NC(=O)c3ccc(=O)n(-c4c(F)cccc4F)n3)ccc2n1 [Example 244, 1-(2,6-difluorophenyl)-N-(4-[(3R,4R)-3-amino-4-methyltetrahydro-1H-pyrrol-1-yl]-2-(2-methylbut-2-yl)indazol-5-yl)-6-oxo-1,2-diazine-3-carboxamide] was run?
The IC50 was under 100 nM.

CC(C)c1nc2c(N3CC[C@H](CN)C3)c(NC(=O)c3ccc(=O)n(-c4c(F)cccc4F)n3)ccc2n1C [Example 115, (R)-N-(4-(3-(aminomethyl)pyrrolidin-1-yl)-2-isopropyl-1-methyl-1H-benzo[d]imidazol-5-yl)-1-(2,6-difluorophenyl)-6-oxo-1,6-dihydropyridazine-3-carboxamide] was tested. Which IC50 did it give?
Its IC50 is under 100 nM.

For Cc1nc2c(N3CC[C@@H](NC(=O)CN)C3)c(NC(=O)c3ccc(=O)n(-c4c(F)cccc4F)n3)ccc2n1C [Example 92, (R)-N-(4-(3-(2-aminoacetamido)pyrrolidin-1-yl)-1,2-dimethyl-1H-benzo[d]imidazol-5-yl)-1-(2,6-difluorophenyl)-6-oxo-1,6-dihydropyridazine-3-carboxamide], which IC50 is on record?
Its IC50 is under 100 nM.

How did the IC50 turn out when Cc1nc2c(N3CCC[C@H]3CN)c(NC(=O)c3ccc(=O)n(-c4c(F)cccc4F)n3)ccc2n1C [Example 93, (S)-N-(4-(2-(aminomethyl)pyrrolidin-1-yl)-1,2-dimethyl-1H-benzo[d]imidazol-5-yl)-1-(2,6-difluorophenyl)-6-oxo-1,6-dihydropyridazine-3-carboxamide] was run?
The IC50 was under 100 nM.

Which IC50 does the source give for [2H]C([2H])([2H])n1ncc2c(N3C[C@H](N)C4(CC4)C3)c(NC(=O)c3ccc(=O)n(-c4c(F)cccc4F)n3)ccc21 [Example 172, (R)-N-(4-(7-amino-5-azaspiro[2.4]heptan-5-yl)-1-(methyl-d3)-1H-indazol-5-yl)-1-(2,6-difluorophenyl)-6-oxo-1,6-dihydropyridazine-3-carboxamide] here?
The IC50 was under 100 nM.

How did the IC50 turn out when N[C@@H]1CCCN(c2c(NC(=O)c3ccc(=O)n(-c4c(F)cccc4F)n3)ccc3c2cnn3[C@H]2CCOC2)C1 [Example 263, N-(4-((R)-3-aminopiperidin-1-yl)-1-((S)-tetrahydrofuran-3-yl)-1H-indazol-5-yl)-1-(2,6-difluorophenyl)-6-oxo-1,6-dihydropyridazine-3-carboxamide] was run?
The IC50 was under 100 nM.

With Cc1nc2c(N3CC[C@@H](N)C3)c(NC(=O)c3ccc(=O)n(-c4c(F)cccc4F)n3)ccc2n1C [Example 73, (R)-N-(4-(3-aminopyrrolidin-1-yl)-1,2-dimethyl-1H-benzo[d]imidazol-5-yl)-1-(2,6-difluorophenyl)-6-oxo-1,6-dihydropyridazine-3-carboxamide] as the molecule, how does the IC50 read?
The IC50 was under 100 nM.

How did the IC50 turn out when CC1(C)CN(c2c(NC(=O)c3ccc(=O)n(-c4c(F)cccc4F)n3)ccc3c2cnn3[C@@H]2CCOC2)C[C@@H]1N [Example 267, N-(4-((R)-4-amino-3,3-dimethylpyrrolidin-1-yl)-1-((R)-tetrahydrofuran-3-yl)-1H-indazol-5-yl)-1-(2,6-difluorophenyl)-6-oxo-1,6-dihydropyridazine-3-carboxamide] was run?
The IC50 was under 100 nM.

For Cc1nc2c(N3CCC(N)C(F)(F)C3)c(NC(=O)c3ccc(=O)n(-c4c(F)cccc4F)n3)ccc2n1C (centres unmarked) [Example 95, N-(4-(4-amino-3,3-difluoropiperidin-1-yl)-1,2-dimethyl-1H-benzo[d]imidazol-5-yl)-1-(2,6-difluorophenyl)-6-oxo-1,6-dihydropyridazine-3-carboxamide], which IC50 is on record?
Its IC50 is under 100 nM.
